This is an account of results in article PMC6804229, “Cytotoxic Xanthones from Hypericum stellatum, an Ethnomedicine in Southwest China” (Molecules, 2019).

Read-outs that look alike come from different tables or passages of the source.

In data set [1] the test system is five human liver carcinoma cell lines. The experiment in a line: cells. The data set is classed as cell-based. The procedure:
The incubation continued for another 1–4 h.

Data set [2] concerns LO2.
Description: (§1) Considering its purported medicinal value for the treatment of liver disease, we tested the cytotoxic activities of ten xanthones isolated from H. stellatum against five human liver carcinoma cell lines (SMMC-7721, Huh-7, HepG2, SK-HEP-1, PLC/PRF/5), as well as the immortalized non-cancerous human liver cell (LO2) by the MTS method, in vitro, with cisplatin (CAS No. 15663-27-1, Meilunbio, Dalian, China) and Taxol (CAS No. 33069-62-4, Meilunbio, Dalian, China) as positive controls.
(§2) The isolated compounds were tested in vitro for their cytotoxicity to five human liver carcinoma cell lines (SMMC-7721, Huh-7, HepG2, SK-HEP-1, PLC/PRF/5) and the immortalized noncancerous human liver cell (LO2), in a 3-(4,5-dimethylthiazol-2-yl)-5(3-carboxymethoxyphenyl)2-(4-sulfopheny)-2H-tetrazolium (MTS; Promega, Beijing, China) assay [31]. In general, cells in the log phase of their cycle were seeded in 96-well plates (4000–5000 cells/well, NEST Biotechnology, Wuxi, China) in a 100-μL volume. After 12 h of incubation at 37 °C, each test compound was added. The cancer cell lines were exposed to the test compounds at five concentrations (0.064, 0.32, 1.6, 8, and 40 μM) in triplicate with cisplatin (Meilunbio, CAS No. 15663-27-1) and Taxol (Meilunbio, CAS No. 33069-62-4) as the positive control. After incubation for 48 h at 37 °C, 20 μL of MTS solution and 100 μL DMEM were added into the well. The incubation continued for another 1–4 h.
Data set [3] deals with Huh-7. Briefly: MTS cytotoxicity assay, Huh-7.
Protocol: as §2
Data set [4] relates to HepG2. Briefly: MTS cytotoxicity assay, HepG2. In general terms: Tetrazolium assays rely on reduction of a dye to a coloured formazan, in cell work by metabolically active cells.
Protocol: as §2
For data set [5], the system named is SK-HEP-1. Briefly: MTS cytotoxicity assay, SK-HEP-1.
Protocol: as §2
Data set [6] has as its system SMMC-7721. Briefly: MTS cytotoxicity assay, SMMC-7721.
Protocol: as §2
Data set [7] has as its system PLC/PRF/5. The experiment in a line: MTS cytotoxicity assay, PLC/PRF/5.
Protocol: as §2
The test system of data set [8] is LO2. Briefly: cells. The conditions noted are these: Homo sapiens, L02, 48 h, read-out: IC50 ± SD.
Description: as §1, §2
The test system of data set [9] is SMMC-7721.
Protocol: as §2
Data set [10] has as its system Huh-7.
Protocol: as §2
Data set [11] relates to HepG2.
Protocol: as §2
The test system of data set [12] is SK-HEP-1.
Protocol: as §2
Data set [13] deals with PLC/PRF/5.
Protocol: as §2
Data set [14] has as its system PKC. The arrangement: method as in PMID 26245668. The conditions noted are these: synthesized isojacareubin; cited from earlier work.
Where [15] appears, read: range over five human liver carcinoma cell lines, read-out: IC50 value range.
[16] abbreviates: read-out: IC50 ± SD, LO2 human normal liver cell line, MTS, 48 h, mean of three independent experiments.
The mark [17] stands for this setting: read-out: IC50 ± SD, Huh-7, MTS, 48 h, mean of three independent experiments.
Where [18] appears, read: read-out: IC50 ± SD, HepG2, MTS, 48 h, mean of three independent experiments.
The mark [19] stands for this setting: read-out: IC50 ± SD, SK-HEP-1, MTS, 48 h, mean of three independent experiments.
[20] abbreviates: read-out: IC50 ± SD, SMMC-7721, MTS, 48 h, mean of three independent experiments.
Setting [21] is: read-out: IC50 ± SD, PLC/PRF/5, MTS, 48 h, mean of three independent experiments.
Setting [22] is: Homo sapiens, Huh-7, 48 h, read-out: IC50 ± SD.
Setting [23] is: Homo sapiens, HepG2, 48 h, read-out: IC50 ± SD.
The mark [24] stands for this setting: Homo sapiens, HepG2, read-out: cytotoxic activity (class).
[25] abbreviates: Homo sapiens, SK-HEP1, 48 h, read-out: IC50 ± SD.
Where [26] appears, read: Homo sapiens, SMMC-7721, 48 h, read-out: IC50 ± SD.
The mark [27] stands for this setting: Homo sapiens, PLC-PRF-5, 48 h, read-out: IC50 ± SD.
Setting [28] is: Homo sapiens, SMMC-7721, read-out: cytotoxic activity (class).
Setting [29] is: Homo sapiens, SK-HEP1, read-out: cytotoxic activity (class).
Setting [30] is: Homo sapiens, Huh-7, read-out: cytotoxic activity (class).
Where [31] appears, read: Homo sapiens, PLC-PRF-5, read-out: cytotoxic activity (class).

As to `N.N.[Cl][Pt][Cl]` [Cisplatin, cisplatin, reference compound], the IC50 was 4.47 to 20.6 µM in data set [1] (setting [15]); 13.9 ± 0.87 µM in [2] (setting [16]); 16 ± 0.95 µM in [3] (setting [17]); 10.3 ± 0.5 µM in data set [4] (setting [18]); 20.6 ± 1.03 µM in [5] (setting [19]); 4.47 ± 0.27 µM in data set [6] (setting [20]). The IC50 in data set [7] (setting [21]) turned out to be 10.7 ± 0.8 µM.
As to `COc1cc2oc3ccccc3c(=O)c2cc1O` [Compound 1, 2-hydroxy-3-methoxyxanthone], the IC50 in data set [8] is 14.5 ± 0.95 µM; in data set [3] (setting [22]) it was greater than 40 µM; in data set [4] (setting [23]) it was 10.2 ± 0.12 µM; in data set [4] (setting [24]), 10 to 40 µM; in data set [5] (setting [25]) it was greater than 40 µM; in data set [6] (setting [26]), greater than 40 µM. The IC50 in data set [7] (setting [27]) is greater than 40 µM.
`O=c1c2c(O)cccc2oc2cc(O)cc(O)c12` [Compound 2, 1,3,8-trihydroxyxanthone]: the IC50 in data set [8] is greater than 40 µM; in data set [3] (setting [22]), greater than 40 µM; in data set [4] (setting [23]), greater than 40 µM; in [5] (setting [25]) it was greater than 40 µM; in [6] (setting [26]) it was 15.2 ± 0.27 µM; in [6] (setting [28]), 10 to 40 µM. Besides, the IC50 in data set [7] (setting [27]) was greater than 40 µM.
As for `O=c1c2cc(O)c(O)cc2oc2cc(O)cc(O)c12` [Compound 3, 1,3,6,7-tetrahydroxylxanthone], the IC50 in data set [3] (setting [22]), in [4] (setting [23]), in data set [5] (setting [25]), in data set [6] (setting [26]) and in data set [7] (setting [27]) was greater than 40 µM each time.
For `O=c1c2cc(O)ccc2oc2cc(O)cc(O)c12` [Compound 4, 1,3,7-trihydroxyxanthone], the IC50 is greater than 40 µM in data set [8]; greater than 40 µM in data set [3] (setting [22]); 22.6 ± 1.43 µM in data set [4] (setting [23]); 10 to 40 µM in [4] (setting [24]); greater than 40 µM in [5] (setting [25]); greater than 40 µM in [6] (setting [26]). Further, the IC50 in data set [7] (setting [27]) is greater than 40 µM.
`COc1cc(O)cc2oc3cc(O)c(O)cc3c(=O)c12` [Compound 5, 3,6,7-trihydroxy-1-methoxyxanthone]: the IC50 in data set [3] (setting [22]), in data set [4] (setting [23]), in [5] (setting [25]), in data set [6] (setting [26]) and in data set [7] (setting [27]) was greater than 40 µM in each case.
On to `COc1cc2oc3cc(O)cc(O)c3c(=O)c2cc1O` [Compound 7, 1,3,7-trihydroxy-6-methoxyxanthone], for which the IC50 was 12.1 ± 0.14 µM in data set [8]; greater than 40 µM in [3] (setting [22]); greater than 40 µM in data set [4] (setting [23]); 37.1 ± 0.97 µM in data set [5] (setting [25]); 10 to 40 µM in [5] (setting [29]); 28.2 ± 0.89 µM in data set [6] (setting [26]). For the same molecule, the values for the IC50 in data set [6] (setting [28]) and in [7] (setting [27]) were 10 to 40 µM and greater than 40 µM, respectively.
Turning to `C=C(C)[C@@H]1Cc2c(cc(O)c3c(=O)c4ccc(O)c(O)c4oc23)OC1C=C(C)C` (some centres unmarked) [Compound 9, Hypxanthone B], the IC50 in [1] (Homo sapiens, read-out: cytotoxicity (class)) was 10 to 40 µM; in [8], greater than 40 µM; in data set [3] (setting [22]), 25.8 ± 2.04 µM; in [3] (setting [30]), 10 to 40 µM; in [4] (setting [23]), 11.93 ± 0.1 µM; in data set [4] (setting [24]), 10 to 40 µM. The IC50 was greater than 40 µM in data set [5] (setting [25]), 8.26 ± 0.57 µM in data set [6] (setting [26]), 30.8 ± 0.38 µM in [7] (setting [27]) and 10 to 40 µM in [7] (setting [31]).
`C=C(C)C(CC=C(C)C)Cc1c(O)cc(O)c2c(=O)c3ccc(O)c(O)c3oc12` (centres unmarked) [Compound 10, calycinoxanthon D]: the IC50 was 12.2 ± 0.25 µM in [8]; 16.6 ± 0.24 µM in [3] (setting [22]); 10 to 40 µM in data set [3] (setting [30]); 21.33 ± 0.16 µM in data set [4] (setting [23]); 10 to 40 µM in data set [4] (setting [24]); 31.1 ± 2.67 µM in data set [5] (setting [25]). For the same molecule, the IC50 in [5] (setting [29]) is 10 to 40 µM; in data set [6] (setting [26]), 6.27 ± 0.16 µM; in data set [7] (setting [27]) it was 24.9 ± 0.46 µM; in data set [7] (setting [31]) it was 10 to 40 µM.
Turning to `CC(=O)O[C@H]1C(=O)[C@@]2(C)[C@H]([C@H](OC(=O)c3ccccc3)[C@]3(O)C[C@H](OC(=O)[C@H](O)[C@@H](NC(=O)c4ccccc4)c4ccccc4)C(C)=C1C3(C)C)[C@]1(OC(C)=O)CO[C@@H]1C[C@@H]2O` [Taxol, reference compound], the IC50 in [8] is less than 0.01 µM; in data set [3] (setting [22]), 0.11 ± 0.011 µM; in [4] (setting [23]), less than 0.01 µM; in data set [5] (setting [25]), less than 0.01 µM; in [6] (setting [26]) it was 0.18 ± 0.03 µM; in data set [7] (setting [27]), less than 0.01 µM.
Turning to isojacareubin [Compound 6], the IC50 is 1.41 to 11.8 µM in [1] (setting [15]); less than 10 µM in [9]; less than 10 µM in [10]; less than 10 µM in [11]; less than 10 µM in [12]; 10 to 40 µM in data set [13]. For the same molecule, the IC50 was less than 10 µM in [2]; 2.03 ± 0.04 µM in data set [2] (setting [16]); 9.09 ± 0.38 µM in [3] (setting [17]); 2.4 ± 0.02 µM in data set [4] (setting [18]); 9.2 ± 0.21 µM in data set [5] (setting [19]); 1.41 ± 0.03 µM in data set [6] (setting [20]). Further, the IC50 in data set [7] (setting [21]) amounted to 11.8 ± 0.56 µM. Further, the “inhibition of PKC” value in [14] was “potent inhibitor”.
